Laboratory results published in ChEMBL document CHEMBL3885861, “Open TG-GATES”.

Species: Rattus norvegicus
Test: Open TG-GATES - Regimen: Single
Format: toxicity, organism-based, Sprague-Dawley
Design: regimen Single, gender Male, age 6 weeks
Conditions: in vivo, po, 0 mg/kg, route gavage, dose level Control; for APTT / Bas / Eos / Fbg / Hb / Ht / Lym / MCH / MCHC / MCV / Mono / Neu / PT / Plat / RBC / Ret / WBC: tissue Blood; for LIVER: tissue Liver; for A/G / ALP / ALT / AST / BUN / CRE / Ca / Cl / DBIL / GLC / IP / K / LDH / Na / PL / RALB / TBIL / TC / TG / TP / gamma-GTP: tissue Plasma

With O=[N+]([O-])c1ccc(O)c([N+](=O)[O-])c1 [2,4-DINITROPHENOL] the TERMINAL_BW (3 h) was 200.9 g, the APTT (3 h) was 15.9 s and the Bas (3 h) was 0%. The Eos (3 h) was 0.8%, the Fbg (3 h) was 241.6 mg/dL and the Hb (3 h) was 13.2 g/dL. For the same compound, the Ht (3 h) was 39.5%, the Lym (3 h) was 74% and the MCH (3 h) was 21.6 pg. For the same compound, the MCHC (3 h) was 33.5%, the MCV (3 h) was 64.4 fL and the Mono (3 h) was 8.4%. For the same compound, the Neu (3 h) was 16.8%, the PT (3 h) was 11.8 s and the Plat (3 h) was 109.2 x10_4/uL. It also gave an RBC (3 h) of 613.4 x10_4/ul, a Ret (3 h) of 9.5% and a WBC (3 h) of 98.2 x10_2/uL. For the same compound, the LIVER (3 h) was 9.3 g, the A/G (3 h) was 2.4 and the ALP (3 h) was 1373.4 IU/L. The ALT (3 h) was 40.8 IU/L, the AST (3 h) was 69.4 IU/L and the BUN (3 h) was 11 mg/dL. It also gave a CRE (3 h) of 0.3 mg/dL, a Ca (3 h) of 11.1 mg/dL and a Cl (3 h) of 103.6 meq/L. It also gave a DBIL (3 h) of 0.01 mg/dL, a GLC (3 h) of 175.6 mg/dL and an IP (3 h) of 9.4 mg/dL. The K (3 h) was 4.4 meq/L, the LDH (3 h) was 117.8 IU/L and the Na (3 h) was 138.6 meq/L. It also gave a PL (3 h) of 150.4 mg/dL, an RALB (3 h) of 3.7 g/dL and a TBIL (3 h) of 0.044 mg/dL. The TC (3 h) was 87.2 mg/dL, the TG (3 h) was 52.4 mg/dL and the TP (3 h) was 5.3 g/dL. The gamma-GTP (3 h) was 0 IU/L, the TERMINAL_BW (6 h) was 197.1 g and the APTT (6 h) was 16.4 s. For the same compound, the Bas (6 h) was 0%, the Eos (6 h) was 0.8% and the Fbg (6 h) was 232 mg/dL. The Hb (6 h) was 13.4 g/dL, the Ht (6 h) was 39.8% and the Lym (6 h) was 77.2%. It also gave an MCH (6 h) of 21.5 pg, an MCHC (6 h) of 33.6% and an MCV (6 h) of 63.9 fL. The Mono (6 h) was 9.6%, the Neu (6 h) was 12.4% and the PT (6 h) was 12.2 s. For the same compound, the Plat (6 h) was 127 x10_4/uL, the RBC (6 h) was 623.4 x10_4/ul and the Ret (6 h) was 8.9%. For the same compound, the WBC (6 h) was 127.4 x10_2/uL, the LIVER (6 h) was 8.9 g and the A/G (6 h) was 2.5. The ALP (6 h) was 1236 IU/L, the ALT (6 h) was 36.4 IU/L and the AST (6 h) was 63.4 IU/L. For the same compound, the BUN (6 h) was 10.4 mg/dL, the CRE (6 h) was 0.4 mg/dL and the Ca (6 h) was 10.8 mg/dL. For the same compound, the Cl (6 h) was 104.8 meq/L, the DBIL (6 h) was 0.01 mg/dL and the GLC (6 h) was 191.6 mg/dL. It also gave an IP (6 h) of 9.3 mg/dL, a K (6 h) of 4.4 meq/L and an LDH (6 h) of 96.8 IU/L. It also gave a Na (6 h) of 138.8 meq/L, a PL (6 h) of 135.4 mg/dL and an RALB (6 h) of 3.9 g/dL. For the same compound, the TBIL (6 h) was 0.056 mg/dL, the TC (6 h) was 79.8 mg/dL and the TG (6 h) was 52.4 mg/dL. For the same compound, the TP (6 h) was 5.5 g/dL, the gamma-GTP (6 h) was 0 IU/L and the TERMINAL_BW (9 h) was 203.5 g. The APTT (9 h) was 15.9 s, the Bas (9 h) was 0% and the Eos (9 h) was 1%. For the same compound, the Fbg (9 h) was 234.6 mg/dL, the Hb (9 h) was 13 g/dL and the Ht (9 h) was 38.7%. It also gave a Lym (9 h) of 76.2%, an MCH (9 h) of 22 pg and an MCHC (9 h) of 33.7%. The MCV (9 h) was 65.1 fL, the Mono (9 h) was 8.8% and the Neu (9 h) was 14.6%. The PT (9 h) was 12.2 s, the Plat (9 h) was 117.6 x10_4/uL and the RBC (9 h) was 595.4 x10_4/ul. The Ret (9 h) was 9.4%, the WBC (9 h) was 108 x10_2/uL and the LIVER (9 h) was 8.7 g. It also gave an A/G (9 h) of 2.5, an ALP (9 h) of 1123.8 IU/L and an ALT (9 h) of 32.8 IU/L. The AST (9 h) was 63.8 IU/L, the BUN (9 h) was 11.6 mg/dL and the CRE (9 h) was 0.3 mg/dL. The Ca (9 h) was 10.9 mg/dL, the Cl (9 h) was 104.2 meq/L and the DBIL (9 h) was 0.01 mg/dL. It also gave a GLC (9 h) of 195.2 mg/dL, an IP (9 h) of 10.4 mg/dL and a K (9 h) of 4.6 meq/L. It also gave an LDH (9 h) of 109.6 IU/L, a Na (9 h) of 139.4 meq/L and a PL (9 h) of 140 mg/dL. It also gave an RALB (9 h) of 3.8 g/dL, a TBIL (9 h) of 0.044 mg/dL and a TC (9 h) of 84.6 mg/dL. For the same compound, the TG (9 h) was 47.8 mg/dL, the TP (9 h) was 5.4 g/dL and the gamma-GTP (9 h) was 0.2 IU/L. The TERMINAL_BW (24 h) was 219.1 g, the APTT (24 h) was 16.3 s and the Bas (24 h) was 0%. It also gave an Eos (24 h) of 1.2%, a Fbg (24 h) of 228.6 mg/dL and a Hb (24 h) of 12.7 g/dL. It also gave a Ht (24 h) of 37.5%, a Lym (24 h) of 72% and an MCH (24 h) of 21.1 pg. For the same compound, the MCHC (24 h) was 33.8%, the MCV (24 h) was 62.5 fL and the Mono (24 h) was 9.4%. For the same compound, the Neu (24 h) was 17.8%, the PT (24 h) was 11.6 s and the Plat (24 h) was 138.4 x10_4/uL. It also gave an RBC (24 h) of 600 x10_4/ul, a Ret (24 h) of 8.1% and a WBC (24 h) of 106.6 x10_2/uL. For the same compound, the LIVER (24 h) was 10.9 g, the A/G (24 h) was 2.4 and the ALP (24 h) was 1480.2 IU/L. The ALT (24 h) was 37.4 IU/L, the AST (24 h) was 62.4 IU/L and the BUN (24 h) was 17 mg/dL. The CRE (24 h) was 0.4 mg/dL, the Ca (24 h) was 11.4 mg/dL and the Cl (24 h) was 103.2 meq/L. The DBIL (24 h) was 0.012 mg/dL, the GLC (24 h) was 185.6 mg/dL and the IP (24 h) was 7.6 mg/dL. It also gave a K (24 h) of 4.6 meq/L, an LDH (24 h) of 84.2 IU/L and a Na (24 h) of 139 meq/L. The PL (24 h) was 160.4 mg/dL, the RALB (24 h) was 3.9 g/dL and the TBIL (24 h) was 0.034 mg/dL. For the same compound, the TC (24 h) was 84 mg/dL, the TG (24 h) was 120.4 mg/dL and the TP (24 h) was 5.5 g/dL. It also gave a gamma-GTP (24 h) of 0.2 IU/L.
